Molecules are shown by their SMILES.

In this experiment the target is interaction between p53 and MDM2 proteins (Homo sapiens, UniProt Q00987). The experiment in a line: HTRF assay of inhibition of the p53-MDM2 interaction (GST-MDM2 / biotinylated p53 peptide). In kind it is binding. The conditions noted are these: recombinant GST-tagged MDM2 and biotinylated p53 peptide, bsa:0.02%. The procedure: The ability of the compounds to inhibit the interaction between p53 and MDM2 proteins was measured by an HTRF (homogeneous time-resolved fluorescence) assay in which recombinant GST-tagged MDM2 binds to a peptide that resembles the MDM2-interacting region of p53. Binding of GST-MDM2 protein and p53-peptide (biotinylated on its N-terminal end) is registered by the FRET (fluorescence resonance energy transfer) between Europium (Eu)-labeled anti-GST antibody and streptavidin-conjugated Allophycocyanin (APC).
Add 10 uL diluted compounds (1:5 dilution in reaction buffer) to each well, mix by shaking. Add 20 uL biotinylated p53 peptide (180 nM working solution) in reaction buffer to each well and mix on shaker. Incubate at 37° C. for 1 h. Add 20 uL streptavidin-APC and Eu-anti-GST antibody mixture (6 nM Eu-anti-GST and 60 nM streptavidin-APC working solution) in TBS buffer with 0.2% BSA, shake at room temperature for 30 minutes and read using a TRF-capable plate reader at
665 and 615 nm (Victor 5, Perkin ElmerWallac). If not specified, the reagents were purchased from Sigma Chemical Co.
Background: TR-FRET usually uses a lanthanide donor and a delayed reading to cut background.

interaction between p53 and MDM2 proteins, sequence (Q00987 whole entry): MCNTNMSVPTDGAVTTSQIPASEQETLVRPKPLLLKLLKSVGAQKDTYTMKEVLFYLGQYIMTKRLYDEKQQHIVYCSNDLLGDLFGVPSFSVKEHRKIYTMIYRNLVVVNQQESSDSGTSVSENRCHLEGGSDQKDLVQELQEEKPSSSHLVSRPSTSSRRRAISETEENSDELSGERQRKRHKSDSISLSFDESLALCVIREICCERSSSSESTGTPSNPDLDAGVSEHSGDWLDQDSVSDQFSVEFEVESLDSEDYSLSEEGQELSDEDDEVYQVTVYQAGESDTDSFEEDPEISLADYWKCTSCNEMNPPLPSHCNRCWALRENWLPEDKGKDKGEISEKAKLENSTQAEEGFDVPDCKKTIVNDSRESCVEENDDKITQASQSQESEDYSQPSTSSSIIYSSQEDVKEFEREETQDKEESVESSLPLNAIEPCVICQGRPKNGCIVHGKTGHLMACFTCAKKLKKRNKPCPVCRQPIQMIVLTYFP

A word on the IC50: it is the point on the concentration scale where inhibition reaches its midpoint. With `CCOc1cc(C(=O)O)ccc1NC(=O)[C@@H]1N[C@@H](CC(C)(C)C)[C@@]2(C(=O)Nc3cc(Cl)ccc32)[C@H]1c1cccc(Cl)c1F` (racemic) [Example 130, rac-4-{[(2′S,3′R,4′S,5′R)-6-chloro-4′-(3-chloro-2-fluoro-phenyl)-2′-(2,2-dimethyl-propyl)-2-oxo-1,2-dihydro-spiro[indole-3,3′-pyrrolidine]-5′-carbonyl]amino}-3-ethoxy-benzoic acid], the IC50 is 11 nM.

As to `COC(=O)c1cccc(NC(=O)[C@@H]2N[C@@H](CC(C)(C)C)[C@@]3(C(=O)Nc4cc(Cl)ccc43)[C@H]2c2cccc(Cl)c2F)c1` (racemic) [Example 31, rac-3-{[(2′S,3′R,4′S,5′R)-6-chloro-4′-(3-chloro-2-fluoro-phenyl)-2′-(2,2-dimethyl-propyl)-2-oxo-1,2-dihydro-spiro[indole-3,3′-pyrrolidine]-5′-carbonyl]amino}-benzoic acid methyl ester], the 50% inhibitory concentration (IC50) came out at 17 nM.

As for `COc1cc(C(N)=O)ccc1NC(=O)[C@@H]1N[C@@H](CC(C)(C)C)[C@@]2(C(=O)Nc3cc(Cl)cc(F)c32)[C@H]1c1cccc(Cl)c1F` (racemic) [Example 76, rac-(2′S,3′R,4′S,5′R)-6-chloro-4′-(3-chloro-2-fluoro-phenyl)-2′-(2,2-dimethyl-propyl)-4-fluoro-2-oxo-1,2-dihydro-spiro[indole-3,3′-pyrrolidine]-5′-carboxylic acid (4-carbamoyl-2-methoxy-phenyl)-amide], the IC50 stood at 11 nM.

On to `CC(C)(C)C[C@@H]1N[C@@H](C(=O)Nc2ccc(C#N)cc2)[C@H](c2cccc(Cl)c2F)[C@]12C(=O)Nc1cc(Cl)cc(F)c12` (racemic) [Example 72, rac-(2′S,3′R,4′S,5′R)-6-chloro-4′-(3-chloro-2-fluoro-phenyl)-2′-(2,2-dimethyl-propyl)-4-fluoro-2-oxo-1,2-dihydro-spiro[indole-3,3′-pyrrolidine]-5′-carboxylic acid (4-cyano-phenyl)-amide], for which the IC50 stood at 22 nM.

Turning to `CC(C)(C)C[C@@H]1N[C@@H](C(=O)Nc2ccc(C(N)=O)cc2F)[C@H](c2cccc(Cl)c2F)[C@]12C(=O)Nc1cc(Cl)ccc12` (racemic) [Example 53, rac-(2′S,3′R,4′S,5′R)-6-chloro-4′-(3-chloro-2-fluoro-phenyl)-2′-(2,2-dimethyl-propyl)-2-oxo-1,2-dihydro-spiro[indole-3,3′-pyrrolidine]-5′-carboxylic acid (4-carbamoyl-2-fluoro-phenyl)-amide], the IC50 came to 11 nM.

With `COc1cc(OCCCS(C)(=O)=O)ccc1NC(=O)[C@@H]1N[C@@H](CC(C)(C)C)[C@@]2(C(=O)Nc3cc(Cl)ccc32)[C@H]1c1cccc(Cl)c1F` [Example 181, chiral (2′S,3′R,4′S,5′R)-6-chloro-4′-(3-chloro-2-fluoro-phenyl)-2′-(2,2-dimethyl-propyl)-2-oxo-1,2-dihydro-spiro[indole-3,3′-pyrrolidine]-5′-carboxylic acid [4-(3-methanesulfonyl-propoxy)-2-methoxy-phenyl]-amide], the IC50 came to 6 nM.

On to `COC(=O)c1ccc(NC(=O)[C@@H]2N[C@@H](CC(C)(C)C)[C@@]3(C(=O)Nc4cc(Cl)ccc43)[C@H]2c2cccc(Cl)c2F)cc1` (racemic) [Example 5, rac-4-{[(2′S,3′R,4′S,5′R)-6-chloro-4′-(3-chloro-2-fluoro-phenyl)-2′-(2,2-dimethyl-propyl)-2-oxo-1,2-dihydro-spiro[indole-3,3′-pyrrolidine]-5′-carbonyl]-amino}-benzoic acid methyl ester], for which the half-inhibitory concentration (IC50) came to 16 nM.

`COC(=O)c1ccc(NC(=O)[C@@H]2N[C@@H](CC(C)(C)C)[C@@]3(C(=O)Nc4cc(Br)ccc43)[C@H]2c2cccc(Cl)c2F)c(OC)c1` (racemic) [Example 122, rac-4-{[(2′S,3′R,4′S,5′R)-6-bromo-4′-(3-chloro-2-fluoro-phenyl)-2′-(2,2-dimethyl-propyl)-2-oxo-1,2-dihydro-spiro[indole-3,3′-pyrrolidine]-5′-carbonyl]-amino}-3-methoxy-benzoic acid methyl ester]: the IC50 was 13 nM.

`COc1cc(C(=O)O)ccc1NC(=O)[C@@H]1N[C@@H](CC(C)(C)C)[C@@]2(C(=O)Nc3cc(Cl)ccc32)[C@H]1c1cccc(Cl)c1` (racemic) [Example 108, rac-4-{[(2′S,3′R,4′R,5′R)-6-chloro-4′-(3-chloro-phenyl)-2′-(2,2-dimethyl-propyl)-2-oxo-1,2-dihydro-spiro[indole-3,3′-pyrrolidine]-5′-carbonyl]amino}-3-methoxy-benzoic acid]: the IC50 worked out at 9 nM.

With `COc1cc(OCCO)ncc1NC(=O)[C@@H]1N[C@@H](CC(C)(C)C)[C@@]2(C(=O)Nc3cc(Cl)ccc32)[C@H]1c1cccc(Cl)c1F` (racemic) [Example 192, rac-(2′S,3′R,4′S,5′R)-6-chloro-4′-(3-chloro-2-fluoro-phenyl)-2′-(2,2-dimethyl-propyl)-2-oxo-1,2-dihydro-spiro[indole-3,3′-pyrrolidine]-5′-carboxylic acid [6-(2-hydroxy-ethoxy)-4-methoxy-pyridin-3-yl]-amide], the IC50 stood at 7 nM.

As to `CC(C)(C)C[C@@H]1N[C@@H](C(=O)Nc2ccc(S(C)(=O)=O)cc2F)[C@H](c2cccc(Cl)c2F)[C@]12C(=O)Nc1cc(Cl)ccc12` (racemic) [Example 37, rac-(2′S,3′R,4′S,5′R)-6-chloro-4′-(3-chloro-2-fluoro-phenyl)-2′-(2,2-dimethyl-propyl)-2-oxo-1,2-dihydro-spiro[indole-3,3′-pyrrolidine]-5′-carboxylic acid (2-fluoro-4-methanesulfonyl-phenyl)-amide], the IC50 was > 10000 nM.

Consider `CC(C)(C)C[C@@H]1N[C@@H](C(=O)Nc2ccc(C#N)nc2)[C@H](c2cccc(Cl)c2F)[C@]12C(=O)Nc1cc(Cl)ccc12` (racemic) [Example 182, rac-(2′S,3′R,4′S,5′R)-6-chloro-4′-(3-chloro-2-fluoro-phenyl)-2′-(2,2-dimethyl-propyl)-2-oxo-1,2-dihydro-spiro[indole-3,3′-pyrrolidine]-5′-carboxylic acid (6-cyano-pyridin-3-yl)-amide], for which the IC50 was 17 nM.

For the compound `CC(C)(C)C[C@@H]1N[C@@H](C(=O)Nc2ccc(C(N)=O)cc2OC(F)(F)F)[C@H](c2cccc(Cl)c2F)[C@]12C(=O)Nc1cc(Cl)ccc12` (racemic) [Example 146, rac-(2′S,3′R,4′S,5′R)-6-chloro-4′-(3-chloro-2-fluoro-phenyl)-2′-(2,2-dimethyl-propyl)-2-oxo-1,2-dihydro-spiro[indole-3,3′-pyrrolidine]-5′-carboxylic acid (4-carbamoyl-2-trifluoromethoxy-phenyl)-amide], the concentration for half-maximal inhibition (IC50) was found to be 14 nM.

Turning to `CC(C)(C)C[C@@H]1N[C@@H](C(=O)Nc2ccc(CCC(=O)O)cc2)[C@H](c2cccc(Cl)c2F)[C@]12C(=O)Nc1cc(Cl)ccc12` [Example 222, chiral 3-(4-{[(2′S,3′R,4′S,5′R)-6-chloro-4′-(3-chloro-2-fluoro-phenyl)-2′-(2,2-dimethyl-propyl)-2-oxo-1,2-dihydro-spiro[indole-3,3′-pyrrolidine]-5′-carbonyl]-amino}-phenyl)-propionic acid], the IC50 was found to be 5 nM.

Consider `COc1cc(OCC[S+](C)[O-])ccc1NC(=O)[C@@H]1N[C@@H](CC(C)(C)C)[C@@]2(C(=O)Nc3cc(Cl)ccc32)[C@H]1c1cccc(Cl)c1F` (single isomer, unassigned) [Example 171, chiral (2′S,3′R,4′S,5′R)-6-chloro-4′-(3-chloro-2-fluoro-phenyl)-2′-(2,2-dimethyl-propyl)-2-oxo-1,2-dihydro-spiro[indole-3,3′-pyrrolidine]-5′-carboxylic acid [4-(2-methanesulfinyl-ethoxy)-2-methoxy-phenyl]-amide], for which the IC50 amounted to 6 nM.

Consider `CC(C)(C)C[C@@H]1N[C@@H](C(=O)Nc2ccc(OCC(N)=O)cc2)[C@H](c2cccc(Cl)c2F)[C@]12C(=O)Nc1cc(Cl)ccc12` (racemic) [Example 210, rac-(2′S,3′R,4′S,5′R)-6-chloro-4′-(3-chloro-2-fluoro-phenyl)-2′-(2,2-dimethyl-propyl)-2-oxo-1,2-dihydro-spiro[indole-3,3′-pyrrolidine]-5′-carboxylic acid (4-carbamoylmethoxy-phenyl)-amide], for which the IC50 was determined as 15 nM.

On to `COc1cc(C#N)ccc1NC(=O)[C@@H]1N[C@@H](CC(C)(C)C)[C@@]2(C(=O)Nc3cc(Br)ccc32)[C@H]1c1cccc(Cl)c1F` (racemic) [Example 118, rac-(2′S,3′R,4′S,5′R)-6-bromo-4′-(3-chloro-2-fluoro-phenyl)-2′-(2,2-dimethyl-propyl)-2-oxo-1,2-dihydro-spiro[indole-3,3′-pyrrolidine]-5′-carboxylic acid (4-cyano-2-methoxy-phenyl)-amide], for which the IC50 turned out to be 11 nM.

In the case of `COc1cc(NC(=O)[C@@H]2N[C@@H](CC(C)(C)C)[C@@]3(C(=O)Nc4cc(Cl)ccc43)[C@H]2c2cccc(Cl)c2F)ccc1C(=O)O` (racemic) [Example 16, rac-4-{[(2′S,3′R,4′S,5′R)-6-chloro-4′-(3-chloro-2-fluoro-phenyl)-2′-(2,2-dimethyl-propyl)-2-oxo-1,2-dihydro-spiro[indole-3,3′-pyrrolidine]-5′-carbonyl]-amino}-2-methoxy-benzoic acid], the IC50 came to 10 nM.

(Values after patent US8088815B2, “Spiroindolinone pyrrolidines” (Hoffman-La Roche Inc., priority 2009, dated 2012).)
